Data published in PubChem BioAssay AID1963958 (Molecular Pharmacology Branch, DTP, NCI, 2024).

System: MDA-MB-231 multicell spheroids, viability
Assay: Anticancer human tumor MDA-MB-231 cell line growth inhibition [PI3K];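 note: spheroids exposed to agents for seven days before reading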;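 for viability, T/C: percent of vehicle control luminescence with DMSO treated spheroids as 100%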
Details: for IC50: curve of first compound; for viability, T/C: stronger effect = lower value
Method in brief: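 Spheroid viability read-out. Co-cultures contained the tumor line plus HUVEC and human MSCs. Each agent was paired with a PI3K inhibitor (inavolisib, alpelisib, duvelisib, copanlisib) across half-log dilutions starting at clinical Cmax, or at 10 microM when Cmax was unknown.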

[1] = second compound 0.0316 µM, first compound 0.000316 µM
[2] = second compound 0.0316 µM, first compound 0.001 µM
[3] = second compound 0.0316 µM, first compound 0.00316 µM
[4] = second compound 0.0316 µM, first compound 0.01 µM
[5] = second compound 0.0316 µM, first compound 0.0316 µM
[6] = second compound 0.0316 µM, first compound 0.1 µM
[7] = second compound 0.1 µM, first compound 0.000316 µM
[8] = second compound 0.1 µM, first compound 0.001 µM
[9] = second compound 0.1 µM, first compound 0.00316 µM
[10] = second compound 0.1 µM, first compound 0.01 µM
[11] = second compound 0.1 µM, first compound 0.0316 µM
[12] = second compound 0.1 µM, first compound 0.1 µM
[13] = second compound 0.316 µM, first compound 0.000316 µM
[14] = second compound 0.316 µM, first compound 0.001 µM
[15] = second compound 0.316 µM, first compound 0.00316 µM
[16] = second compound 0.316 µM, first compound 0.01 µM
[17] = second compound 0.316 µM, first compound 0.0316 µM
[18] = second compound 0.316 µM, first compound 0.1 µM
[19] = second compound 1 µM, first compound 0.000316 µM
[20] = second compound 1 µM, first compound 0.001 µM
[21] = second compound 1 µM, first compound 0.00316 µM
[22] = second compound 1 µM, first compound 0.01 µM
[23] = second compound 1 µM, first compound 0.0316 µM
[24] = second compound 1 µM, first compound 0.1 µM
[25] = second compound 3.16 µM, first compound 0.000316 µM
[26] = second compound 3.16 µM, first compound 0.001 µM
[27] = second compound 3.16 µM, first compound 0.00316 µM
[28] = second compound 3.16 µM, first compound 0.01 µM
[29] = second compound 3.16 µM, first compound 0.0316 µM
[30] = second compound 3.16 µM, first compound 0.1 µM
[31] = second compound 10 µM, first compound 0.000316 µM
[32] = second compound 10 µM, first compound 0.001 µM
[33] = second compound 10 µM, first compound 0.00316 µM
[34] = second compound 10 µM, first compound 0.01 µM
[35] = second compound 10 µM, first compound 0.0316 µM
[36] = second compound 10 µM, first compound 0.1 µM

Compound: CC(=O)c1c(C)c2cnc(Nc3ccc(N4CCNCC4)cn3)nc2n(C2CCCC2)c1=O + CC(Nc1ncnc2nc[nH]c12)c1cc2cccc(Cl)c2c(=O)n1-c1ccccc1
- IC50 (second compound 0.0316 µM): > 100 nM
- IC50 (second compound 0.1 µM): 86.2 nM
- IC50 (second compound 0.316 µM): 75.3 nM
- IC50 (second compound 1 µM): 36.1 nM
- IC50 (second compound 3.16 µM): 11.4 nM
- IC50 (second compound 10 µM): < 0.316 nM
- viability, T/C [1]: 96.8%
- viability, T/C [2]: 107%
- viability, T/C [3]: 92.6%
- viability, T/C [4]: 90.6%
- viability, T/C [5]: 72.8%
- viability, T/C [6]: 53.2%
- viability, T/C [7]: 98.8%
- viability, T/C [8]: 99.6%
- viability, T/C [9]: 96.1%
- viability, T/C [10]: 80.5%
- viability, T/C [11]: 71.3%
- viability, T/C [12]: 46.5%
- viability, T/C [13]: 86.8%
- viability, T/C [14]: 90%
- viability, T/C [15]: 92.6%
- viability, T/C [16]: 83.5%
- viability, T/C [17]: 66.6%
- viability, T/C [18]: 44.6%
- viability, T/C [19]: 79.2%
- viability, T/C [20]: 79.9%
- viability, T/C [21]: 78.4%
- viability, T/C [22]: 65.1%
- viability, T/C [23]: 52.9%
- viability, T/C [24]: 36%
- viability, T/C [25]: 62.5%
- viability, T/C [26]: 60.1%
- viability, T/C [27]: 55.3%
- viability, T/C [28]: 51.1%
- viability, T/C [29]: 43.1%
- viability, T/C [30]: 29.6%
- viability, T/C [31]: 42.6%
- viability, T/C [32]: 47.5%
- viability, T/C [33]: 41.2%
- viability, T/C [34]: 38%
- viability, T/C [35]: 36.1%
- viability, T/C [36]: 19%

Compound: CC(C)n1nc(-c2ccc3oc(N)nc3c2)c2c(N)ncnc21 + CC(Nc1ncnc2nc[nH]c12)c1cc2cccc(Cl)c2c(=O)n1-c1ccccc1
- IC50 (second compound 0.0316 µM): 64.4 nM
- IC50 (second compound 0.1 µM): 65.5 nM
- IC50 (second compound 0.316 µM): 51.9 nM
- IC50 (second compound 1 µM): 32.7 nM
- IC50 (second compound 3.16 µM): 12.5 nM
- IC50 (second compound 10 µM): < 0.316 nM
- viability, T/C [1]: 94.1%
- viability, T/C [2]: 101%
- viability, T/C [3]: 93.1%
- viability, T/C [4]: 85.6%
- viability, T/C [5]: 65.5%
- viability, T/C [6]: 40.5%
- viability, T/C [7]: 101%
- viability, T/C [8]: 100%
- viability, T/C [9]: 91.9%
- viability, T/C [10]: 79.7%
- viability, T/C [11]: 66.2%
- viability, T/C [12]: 41%
- viability, T/C [13]: 91.7%
- viability, T/C [14]: 90.2%
- viability, T/C [15]: 87.2%
- viability, T/C [16]: 72.8%
- viability, T/C [17]: 58.8%
- viability, T/C [18]: 39.4%
- viability, T/C [19]: 80.5%
- viability, T/C [20]: 78%
- viability, T/C [21]: 76.1%
- viability, T/C [22]: 68.5%
- viability, T/C [23]: 50%
- viability, T/C [24]: 39.2%
- viability, T/C [25]: 62.1%
- viability, T/C [26]: 64.9%
- viability, T/C [27]: 57.8%
- viability, T/C [28]: 50.8%
- viability, T/C [29]: 43.4%
- viability, T/C [30]: 31.8%
- viability, T/C [31]: 49.2%
- viability, T/C [32]: 44.6%
- viability, T/C [33]: 42.4%
- viability, T/C [34]: 35.9%
- viability, T/C [35]: 30.1%
- viability, T/C [36]: 24.2%
